This is an account of results in patent US11564928B1, “Cannabinoid receptor type 2 (CB2) modulators and uses thereof” (Teon Therapeutics, Inc., priority 2020, dated 2023).

For test [1], the target named is T1, human CB2 receptor (Homo sapiens (Human), UniProt P34972). The test is described as follows: CB2 receptor binding assay ([3H]CP-55,940 displacement, HEK-293 membranes).
The target of test [2] is T1, human CB2 receptor. The test is described as follows: CB2 receptor cAMP assay (DiscoverX HitHunter cAMP XS+). Format: cell-based. How it is done:
cAMP Hunter CHO-K-1 cell lines expressing human CB2 receptor (Eurofins) were expanded from freezer stocks according to standard procedures. Cells were seeded in a total volume of 20 μL into white walled, 384-well microplates and incubated at 37° C. for the appropriate time prior to testing. cAMP modulation in agonist, inverse agonist or antagonist format was determined using the DiscoverX HitHunter cAMP XS+ assay (Eurofins). For agonist determination, cells were incubated with sample in the presence of EC80 forskolin to induce response. Media was aspirated from cells and replaced with 15 μL 2:1 HBSS/10 mM Hepes: cAMP XS+Ab reagent. Intermediate dilution of sample stocks was performed to generate 4× sample in assay buffer containing 4× EC80 forskolin. 5 μL of 4× sample was added to cells and incubated at 37° C. or room temperature for 30 or 60 minutes. Final assay vehicle concentration was 1%. For inverse agonist determination, cells were preincubated with sample in the presence of EC20 forskolin. Media was aspirated from cells and replaced with 15 μL, 2:1 HBSS/10 mM Hepes: cAMP XS+Ab reagent. Intermediate dilution of sample stocks was performed to generate 4× sample in assay buffer containing 4× EC20 forskolin. 5 μL of 4× sample was added to cells and incubated at 37° C. or room temperature for 30 or 60 minutes. Final assay vehicle concentration was 1%. For antagonist determination, cells were pre-incubated with sample followed by agonist challenge at the EC80 concentration. Media was aspirated from cells and replaced with 10 μL 1:1 HBSS/Hepes: cAMP XS+Ab reagent. 5 μL of 4× compound was added to the cells and incubated at 37° C. or room temperature for 30 minutes. 5 μL of 4× EC80 agonist was added to cells and incubated at 37° C. or room temperature for 30 or 60 minutes. EC80 forksolin was included. After appropriate compound incubation, assay signal was generated through incubation with 20 μL cAMP XS+ED/CL lysis cocktail for one hour followed by incubation with 20 μL, cAMP XS+EA reagent for three hours at room temperature. Microplates were read following signal generation with a PerkinElmer Envision instrument for chemiluminescent signal detection. Compound activity was analyzed using CBIS data analysis suite (ChemInnovation, CA). For agonist mode assay, percentage activity is calculated using the following formula: % Activity=100%×(1−(mean RLU of test sample−mean RLU of MAX control)/(mean RLU of vehicle control−mean RLU of MAX control)). For inverse agonist mode assay, percentage activity is calculated using the following formula: % Inverse Agonist Activity=100%×((mean RLU of test sample−mean RLU of EC20 forskolin)/(mean RLU of forskolin positive control−mean RLU of EC20 control)). For antagonist mode assay, percentage inhibition is calculated using the following formula: % Inhibition=100%×(mean RLU of test sample−mean RLU of EC80 control)/(mean RLU of forskolin positive control−mean RLU of EC80 control). Data are analyzed and IC50 is calculated using GraphPad Prism 5 and the model “log(inhibitor) vs. response—Variable slope”.
In general terms: Changes in cAMP serve as a functional read-out for many G protein-coupled receptors.

The target in the next test is human recombinant CB1R (Homo sapiens (Human), UniProt P21554). Nature of the test: CB1 receptor binding assay ([3H]CP-55,940 displacement, HEK-293 membranes). In outline:
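Membranes from HEK-293 cells expressing human recombinant CB1R or CB2R were incubated with [3H]CP-55,940 and compound for 120 min at 37 °C in duplicate. The CB2R incubation buffer was 50 mM Tris-HCl, 5 mM MgCl2, 1 mM CaCl2, 0.2% BSA, pH 7.4. Bound radioactivity was filtered and counted, and IC50 was converted to Ki by Cheng–Prusoff.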

[3] abbreviates: membranes of HEK-293 cells with human recombinant CB2R, [3H]CP-55,940, class symbols, read-out: CB2 IC50.
The mark [4] stands for this setting: membranes of HEK-293 cells with human recombinant CB1R, [3H]CP-55,940, class symbols, read-out: CB1 IC50.
The mark [5] stands for this setting: membranes of HEK-293 cells with human recombinant CB2R, [3H]CP-55,940, read-out: CB2 IC50.
[6] abbreviates: membranes of HEK-293 cells with human recombinant CB1R, [3H]CP-55,940, read-out: CB1 IC50.

Where two headings read alike, the source gives them in different places. A value given as a limit tells only on which side of the number the result lay.

T1 sequence (P34972 whole entry): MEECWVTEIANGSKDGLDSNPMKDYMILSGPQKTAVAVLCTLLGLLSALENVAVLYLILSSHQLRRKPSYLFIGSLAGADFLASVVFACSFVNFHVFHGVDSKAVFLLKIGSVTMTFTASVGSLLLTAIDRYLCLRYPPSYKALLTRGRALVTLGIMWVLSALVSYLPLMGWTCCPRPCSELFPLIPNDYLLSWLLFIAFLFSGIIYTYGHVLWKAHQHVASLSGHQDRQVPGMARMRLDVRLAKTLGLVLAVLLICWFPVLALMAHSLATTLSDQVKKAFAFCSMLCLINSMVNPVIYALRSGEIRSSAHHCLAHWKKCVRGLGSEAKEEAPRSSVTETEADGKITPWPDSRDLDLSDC
Chain of human recombinant CB1R (P21554 whole entry): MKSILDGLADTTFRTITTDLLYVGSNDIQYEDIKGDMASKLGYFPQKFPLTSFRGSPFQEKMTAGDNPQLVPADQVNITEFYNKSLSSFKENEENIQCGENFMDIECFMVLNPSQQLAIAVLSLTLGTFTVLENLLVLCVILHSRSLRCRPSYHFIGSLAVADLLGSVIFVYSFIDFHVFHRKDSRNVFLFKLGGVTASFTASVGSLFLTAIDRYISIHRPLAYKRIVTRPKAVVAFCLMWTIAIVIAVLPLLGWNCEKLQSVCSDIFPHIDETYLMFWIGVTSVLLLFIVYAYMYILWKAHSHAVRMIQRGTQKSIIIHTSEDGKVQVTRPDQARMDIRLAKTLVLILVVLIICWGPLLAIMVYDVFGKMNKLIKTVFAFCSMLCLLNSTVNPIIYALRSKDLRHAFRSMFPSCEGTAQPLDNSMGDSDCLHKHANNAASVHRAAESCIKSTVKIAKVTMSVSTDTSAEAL

Usually IC50 stands for the point on the concentration scale where inhibition reaches its midpoint. As to `N#Cc1ccc(C2(NC(=O)c3cc4cc(Br)cnc4n(Cc4ccc(F)cc4)c3=O)CC2)cc1` [Compound 92, 6-bromo-N-(1-(4-cyanophenyl)cyclopropyl)-1-(4-fluorobenzyl)-2-oxo-1,2-dihydro-1,8-naphthyridine-3-carboxamide], the values for the IC50 at human CB2 receptor [1] (setting [3]) and at human CB2 receptor [2] were under 100 nM and 3.6 nM, respectively. Besides, the Emax at human CB2 receptor [2] (CHO-K1, read-out: Max Stimulation %) stood at 108%.
In the case of `CC(C)(CO)NC(=O)c1c(O)c2cccnc2n(Cc2ccc(F)cc2)c1=O` [Compound 140, 1-[(4-fluorophenyl)methyl]-4-hydroxy-N-(2-hydroxy-1,1-dimethyl-ethyl)-2-oxo-1,8-naphthyridine-3-carboxamide], the half-maximal inhibitory concentration (IC50) on human CB2 receptor [1] is 100 to 999 nM; at human recombinant CB1R (setting [4]) it was over 1000 nM.
Take `CC12CC(NC(=O)c3c(O)c4cccnc4n(Cc4ccc(F)cc4)c3=O)(C1)C2` [Compound 141, 1-[(4-fluorophenyl)methyl]-4-hydroxy-N-(3-methyl-1-bicyclo[1.1.1]pentanyl)-2-oxo-1,8-naphthyridine-3-carboxamide]: the IC50 was 100 to 999 nM at human CB2 receptor [1] and over 1000 nM on human recombinant CB1R (setting [4]).
In the case of `O=C(NC1CC2(CC2)C1)c1c(O)c2cccnc2n(Cc2ccc(F)cc2)c1=O` [Compound 142, 1-[(4-fluorophenyl)methyl]-4-hydroxy-2-oxo-N-spiro[2.3]hexan-5-yl-1,8-naphthyridine-3-carboxamide], the figures for the half-inhibitory concentration (IC50) at human CB2 receptor [1] and at human recombinant CB1R (setting [4]) were 100 to 999 nM and over 1000 nM, respectively.
With `C[C@H]1CC[C@@H](NC(=O)c2c(O)c3cccnc3n(Cc3ccc(F)cc3)c2=O)CC1` [Compound 143, 1-(4-fluorobenzyl)-4-hydroxy-N-((1s, 4s)-4-methylcyclohexyl)-2-oxo-1,2-dihydro-1,8-naphthyridine-3-carboxamide], the concentration for half-maximal inhibition (IC50) at human CB2 receptor [1] (setting [5]) was determined as 34 nM; at human recombinant CB1R (setting [6]), 3360 nM.
The matching figures for `C[C@H]1CC[C@H](NC(=O)c2c(O)c3cccnc3n(Cc3ccc(F)cc3)c2=O)CC1` [Compound 144, 1-(4-fluorobenzyl)-4-hydroxy-N-((1r, 4r)-4-methylcyclohexyl)-2-oxo-1,2-dihydro-1,8-naphthyridine-3-carboxamide]: 1500 nM and over 10000 nM.
Take `O=C(NC1(CO)CCCCC1)c1c(O)c2cccnc2n(Cc2ccc(F)cc2)c1=O` [Compound 145, 1-[(4-fluorophenyl)methyl]-4-hydroxy-N-[1-(hydroxymethyl)cyclohexyl]-2-oxo-1,8-naphthyridine-3-carboxamide]: the half-inhibitory concentration (IC50) on human CB2 receptor [1] (setting [3]) is under 100 nM; at human recombinant CB1R (setting [4]), over 1000 nM.
The matching figures for `O=C(NC12CC(C1)C2)c1c(O)c2nccnc2n(CCN2CCOCC2)c1=O` [Compound 146, N-(bicyclo[1.1.1]pentan-1-yl)-8-hydroxy-5-(2-morpholinoethyl)-6-oxo-5,6-dihydropyrido[2,3-b]pyrazine-7-carboxamide]: over 1000 nM and over 1000 nM.
On to `O=C(NC12CC(C1)C2)c1c(O)c2nccnc2n(Cc2ccc(F)cc2)c1=O` [Compound 147, N-(bicyclo[1.1.1]pentan-1-yl)-5-(4-fluorobenzyl)-8-hydroxy-6-oxo-5,6-dihydropyrido[2,3-b]pyrazine-7-carboxamide], for which the IC50 at human CB2 receptor [1] (setting [3]) and at human recombinant CB1R (setting [4]) was over 1000 nM in each case.
As to `COc1ccc(-c2cnc3c(c2)c(O)c(C(=O)N[C@H]2CC[C@H](C)CC2)c(=O)n3CCN2CCOCC2)cc1` [Compound 148, 4-hydroxy-6-(4-methoxyphenyl)-N-((1R,4R)-4-methylcyclohexyl)-1-(2-morpholinoethyl)-2-oxo-1,2-dihydro-1,8-naphthyridine-3-carboxamide], the concentration for half-maximal inhibition (IC50) at human CB2 receptor [1] (setting [3]) and on human recombinant CB1R (setting [4]) was over 1000 nM each time.
For `COc1ccc(-c2cnc3c(c2)c(O)c(C(=O)N[C@H]2CC[C@@H](C)CC2)c(=O)n3CCN2CCOCC2)cc1` [Compound 149, 4-hydroxy-6-(4-methoxyphenyl)-N-((1s,4S)-4-methylcyclohexyl)-1-(2-morpholinoethyl)-2-oxo-1,2-dihydro-1,8-naphthyridine-3-carboxamide], the IC50 on human CB2 receptor [1] (setting [3]) was under 100 nM; on human recombinant CB1R (setting [4]) it was over 1000 nM.
Regarding `COc1ccc(-c2cnc3c(c2)c(O)c(C(=O)N[C@H](C)c2ccc(F)cc2)c(=O)n3CCN2CCOCC2)cc1` [Compound 150, (R)—N-(1-(4-fluorophenyl)ethyl)-4-hydroxy-6-(4-methoxyphenyl)-1-(2-morpholinoethyl)-2-oxo-1,2-dihydro-1,8-naphthyridine-3-carboxamide], the IC50 on human CB2 receptor [1] is 100 to 999 nM; at human recombinant CB1R (setting [4]), over 1000 nM.
`COc1ccc(-c2cnc3c(c2)c(O)c(C(=O)N[C@@H](C)c2ccc(F)cc2)c(=O)n3CCN2CCOCC2)cc1` [Compound 151, (S)—N-(1-(4-fluorophenyl)ethyl)-4-hydroxy-6-(4-methoxyphenyl)-1-(2-morpholinoethyl)-2-oxo-1,2-dihydro-1,8-naphthyridine-3-carboxamide]: the concentration for half-maximal inhibition (IC50) on human CB2 receptor [1] (setting [3]) and at human recombinant CB1R (setting [4]) was over 1000 nM in each case.
As to `COc1ccc(-c2cnc3c(c2)c(O)c(C(=O)NC2CCCCC2)c(=O)n3CCN2CCOCC2)cc1` [Compound 152, N-cyclohexyl-4-hydroxy-6-(4-methoxyphenyl)-1-(2-morpholinoethyl)-2-oxo-1,2-dihydro-1,8-naphthyridine-3-carboxamide], the IC50 at human CB2 receptor [1] is 100 to 999 nM; on human recombinant CB1R (setting [4]), over 1000 nM.
On to `O=C(NC1CCCCC1)c1c(O)c2cc(-c3ccc(F)cc3)cnc2n(CCN2CCOCC2)c1=O` [Compound 153, N-cyclohexyl-6-(4-fluorophenyl)-4-hydroxy-1-(2-morpholinoethyl)-2-oxo-1,2-dihydro-1,8-naphthyridine-3-carboxamide], for which the figures for the half-inhibitory concentration (IC50) on human CB2 receptor [1] (setting [3]) and on human recombinant CB1R (setting [4]) were under 100 nM and over 1000 nM, respectively.
Taken in the same sequence, the figures for `C[C@H]1CC[C@H](NC(=O)c2c(O)c3cc(-c4ccc(OC(F)F)cc4)cnc3n(CCN3CCOCC3)c2=O)CC1` [Compound 155, 6-(4-(difluoromethoxy)phenyl)-4-hydroxy-N-((1R,4R)-4-methylcyclohexyl)-1-(2-morpholinoethyl)-2-oxo-1,2-dihydro-1,8-naphthyridine-3-carboxamide] were over 1000 nM and over 1000 nM.
Taken in the same sequence, the figures for `C[C@H]1CC[C@@H](NC(=O)c2c(O)c3cc(-c4ccc(OC(F)F)cc4)ccc3n(CCN3CCOCC3)c2=O)CC1` [Compound 158, 6-(4-(difluoromethoxy)phenyl)-4-hydroxy-N-((1s,4S)-4-methylcyclohexyl)-1-(2-morpholinoethyl)-2-oxo-1,2-dihydroquinoline-3-carboxamide] were under 100 nM and over 1000 nM.
`C[C@H]1CC[C@@H](NC(=O)c2c(O)c3cc(-c4ccc(F)cc4)ccc3n(CCN3CCOCC3)c2=O)CC1` [Compound 159, 6-(4-fluorophenyl)-4-hydroxy-N-((1s,4S)-4-methylcyclohexyl)-1-(2-morpholinoethyl)-2-oxo-1,2-dihydroquinoline-3-carboxamide]: the IC50 is under 100 nM at human CB2 receptor [1] (setting [3]) and 100 to 999 nM on human recombinant CB1R.
On to `COc1ccc(-c2ccc3c(c2)c(O)c(C(=O)N[C@H]2CC[C@@H](C)CC2)c(=O)n3CCN2CCOCC2)cc1` [Compound 161, 4-hydroxy-6-(4-methoxyphenyl)-N-((1s,4S)-4-methylcyclohexyl)-1-(2-morpholinoethyl)-2-oxo-1,2-dihydroquinoline-3-carboxamide], for which the concentration for half-maximal inhibition (IC50) at human CB2 receptor [1] (setting [3]) was under 100 nM; on human recombinant CB1R (setting [4]), over 1000 nM.
